Patent EP3831399A1, “ANTI-NOROVIRUS AGENT” (DENSO CORPORATION, priority 2018, dated 2020)
Entries after “also recorded” stand apart in the source; their conditions may differ.

What was measured:
Format in all cases: cell-based
feline calicivirus (FCV) = assay: Virucidal effect in presence of organic material (BSA); details: 1,000 µg/ml
Protocol: • Virus: using feline calicivirus (FCV) as a replacement for norovirus • Used medicine and concentration: 1,000 µg/ml of sodium hypochlorite or coccomyxa sp. KJ strain MGDG preparation • Organic material: using BSA (albumin) 5%
• (1) Feline calicivirus (FCV) was prepared in 2×10^5 PFU/ml. • (2) An MGDG preparation or sodium hypochlorite is prepared at a concentration four times the final assay concentration ([…]). • (3) Bovine serum albumin (BSA) is prepared as an organic material at a concentration four times the final concentration (5%). • (4) Virus fluid: the MGDG preparation or sodium hypochlorite and BSA are mixed at a ratio of 2 : 1 : 1. A sample prepared by adding PBS instead of the MGDG preparation or sodium hypochlorite was used as a control. • (5) After being left at room temperature for 1 minute, 10 minutes, and 60 minutes, 100-fold dilution with PBS is performed. The CRFK cells cultured in a monolayer fashion are added in an amount of 100 µl/culture dish to a 35 mm culture dish, and an infection treatment is performed at room temperature for 1 hour. • (6) A 1% SeaPlaque Agarose-added MEM culture medium is overlaid. • (7) After 2 days, the appeared plaque is immobilized and stained with a crystal violet solution. • (8) The number of plaques is counted under a microscope.

Influenza A virus (IFV) = assay: Virucidal activity of each MGDG fraction, influenza virus; details: 50 µg/ml, 37°C, 60 minutes; MDCK cell
[1] = tested on: Herpes simplex virus type 2 (HSV-2); assay: Virucidal activity of each MGDG fraction, herpes simplex virus type 2; details: 50 µg/ml, 37°C, 60 minutes, Vero cell
Protocol: (1) A coccomyxa sp. KJ strain-derived MGDG preparation was subjected to HPLC, and each peak was separated, thereby obtaining five types of MGDG refined products (MGDG1, MGDG2, MGDG3, MGDG4, and MGDG5). Furthermore, the MGDG preparation before separation (containing MGDG1 to MGDG5) was prepared as a mix product. (2) Each sample was mixed with respect to each virus fluid (2×10^5 PFU/ml) so that the final concentration became 50 µg/ml, and the resultant product was left to stand still at 37°C for 60 minutes.
(3) The mixed liquid of (2) is diluted in the MEM culture medium without foetal bovine serum, a culture medium for plaque assay is then overlaid, and culturing is performed at 37°C for 2 to 3 days. (4) After checking appearance of plaques, the cells were immobilized and stained with a neutral red solution, and the number of plaques was measured under a microscope. The virus survival rate of each sample was calculated based on the appearance number of virus appearing in the case of not adding the sample (100%). The virucidal performance of each sample was evaluated from the virus survival rate.

Molecule: OCl [sodium hypochlorite]
- inactivation effect in the presence of the organic material, change versus its absence (feline calicivirus (FCV); 5% BSA): significantly reduced
- rate of virus inactivation (feline calicivirus (FCV); organic material (BSA) did not exist, one minute): 100%

Molecule: monogalactosyldiacylglycerol in which a constituent fatty acid is C18:3 and C18:2 [MGDG5]
- virucidal (inactivation) activity (virus survival rate) (Influenza A virus (IFV)): significant inactivation effect; also recorded: high virucidal activity
- virucidal (inactivation) activity (virus survival rate) [1]: significant inactivation effect
- virucidal (inactivation) activity (virus survival rate) ([1]; listed as fifth peak of the KJ strain MGDG preparation): high virucidal activity
